Assay results: PubChem BioAssay AID248 (DTP/NCI, 2004)
Values joined by “and” are separate entries in the source; they are usually repeats but may differ in a detail not shown here. Equal entries are not always repeated. Toxic doses and inconclusive results are not listed.

System: L1210 leukemia ip in BDF1 mice, survival T/C
Assay: NCI In Vivo Anticancer Drug Screen. Data for tumor model L1210 Leukemia (intraperitoneal) in B6D2F1 (BDF1) mice
Conditions: endpoint: mean survival time, higher = longer survival
In short: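 In this screen, tumor-bearing mice given compound are compared to those given vehicle, and their survival values are reported as a treated-to-control quotient.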

[1] = dose: 12.5 mg/kg/injection, schedule: Q01DX009 (ip), vehicle: saline
[2] = dose: 12.5 mg/kg/injection, schedule: Q04DX003 (ip), vehicle: saline
[3] = dose: 25.0 mg/kg/injection, schedule: Q01DX009 (ip), vehicle: saline
[4] = dose: 25.0 mg/kg/injection, schedule: Q04DX003 (ip), vehicle: saline
[5] = dose: 50.0 mg/kg/injection, schedule: Q01DX009 (ip), vehicle: saline
[6] = dose: 50.0 mg/kg/injection, schedule: Q04DX003 (ip), vehicle: saline
[7] = dose: 12.5 mg/kg/injection, schedule: Q01DX005 (ip), vehicle: saline
[8] = dose: 50.0 mg/kg/injection, schedule: Q01DX005 (ip), vehicle: saline
[9] = dose: 100.0 mg/kg/injection, schedule: Q01DX005 (ip), vehicle: saline

How did the T/C (dose: 2.62 mg/kg/injection, schedule: Q01DX Z (ip), vehicle: saline) turn out when c1nc(SC2=NCCN2)c2[nH]cnc2n1 was run?
Its T/C is 116 % of control.

And the T/C (dose: 5.0 mg/kg/injection, schedule: Q01DX001 (ip), vehicle: saline)?
The T/C was 100 % of control.

And the T/C (dose: 5.25 mg/kg/injection, schedule: Q01DX Z (ip), vehicle: saline)?
The T/C was 118 % of control.

And the T/C (dose: 5.25 mg/kg/injection, schedule: Q01DX Z (oral), vehicle: saline)?
Its T/C is 114 % of control.

What about the T/C (dose: 10.0 mg/kg/injection, schedule: Q01DX001 (ip), vehicle: saline) of the same compound?
Its T/C is 105 % of control.

What about the T/C (dose: 10.5 mg/kg/injection, schedule: Q01DX Z (oral), vehicle: saline) of the same compound?
Its T/C is 114 % of control.

What about the T/C [1] of the same compound?
Its T/C is 115 % of control.

What about the T/C [2] of the same compound?
Its T/C is 109 % of control.

And the T/C (dose: 20.0 mg/kg/injection, schedule: Q01DX001 (ip), vehicle: saline)?
The T/C was 103 % of control.

What about the T/C (dose: 22.0 mg/kg/injection, schedule: Q04DX003 (ip), vehicle: saline) of the same compound?
The T/C was 106 % of control.

What about the T/C [3] of the same compound?
Its T/C is 118 % of control.

And the T/C [4]?
The T/C was 117 % of control.

What about the T/C (dose: 33.0 mg/kg/injection, schedule: Q04DX003 (ip), vehicle: saline) of the same compound?
Its T/C is 114 % of control and 116 % of control.

And the T/C (dose: 40.0 mg/kg/injection, schedule: Q01DX001 (ip), vehicle: saline)?
The T/C was 108 % of control.

What about the T/C (dose: 42.0 mg/kg/injection, schedule: Q01DX Z (ip), vehicle: saline) of the same compound?
Its T/C is 156 % of control.

And the T/C [5]?
Its T/C is 150 % of control and 178 % of control.

What about the T/C [6] of the same compound?
The T/C was 115 % of control and 118 % of control.

What about the T/C (dose: 168.0 mg/kg/injection, schedule: Q01DX Z (oral), vehicle: saline) of the same compound?
The T/C was 87 % of control.

Which T/C [7] does the source give for COc1ccc(COC2C(O)C(CO)OC2n2ccc(N)nc2=O)cc1 (stereo not given) here?
Its T/C is 103 % of control.

What about the T/C (dose: 25.0 mg/kg/injection, schedule: Q01DX005 (ip), vehicle: saline) of the same compound?
Its T/C is 100 % of control.

And the T/C [8]?
The T/C was 94 % of control.

What about the T/C [9] of the same compound?
The T/C was 107 % of control.

O/N=C/c1cccc(CC(O)(C(F)(F)F)C(F)(F)F)n1 was tested. Which T/C (dose: 50.0 mg/kg/injection, schedule: Q04DX002 (ip), vehicle: saline with Tween-80) did it give?
The T/C was 103 % of control.

What about the T/C (dose: 100.0 mg/kg/injection, schedule: Q01DX001 (ip), vehicle: Klucel (hydroxypropylcellulose) (HPC)) of the same compound?
The T/C was 98 % of control.

What about the T/C (dose: 100.0 mg/kg/injection, schedule: Q04DX002 (ip), vehicle: saline with Tween-80) of the same compound?
The T/C was 88 % of control.

What about the T/C (dose: 200.0 mg/kg/injection, schedule: Q01DX001 (ip), vehicle: Klucel (hydroxypropylcellulose) (HPC)) of the same compound?
Its T/C is 98 % of control.

And the T/C (dose: 200.0 mg/kg/injection, schedule: Q04DX002 (ip), vehicle: saline with Tween-80)?
The T/C was 109 % of control.

What about the T/C (dose: 400.0 mg/kg/injection, schedule: Q01DX001 (ip), vehicle: Klucel (hydroxypropylcellulose) (HPC)) of the same compound?
The T/C was 87 % of control.

And the T/C (dose: 400.0 mg/kg/injection, schedule: Q04DX002 (ip), vehicle: saline with Tween-80)?
The T/C was 106 % of control.

For C[Se]c1ncnc2c1c(C#N)cn2C1OC(CO)C(O)C1O (stereo not given), which T/C [7] is on record?
The T/C was 123 % of control.

What about the T/C [1] of the same compound?
Its T/C is 120 % of control.

What about the T/C [3] of the same compound?
The T/C was 124 % of control.

And the T/C [8]?
Its T/C is 120 % of control.

And the T/C [5]?
Its T/C is 94 % of control.

How did the T/C [9] turn out when CSc1ncnc2n[nH]c(Br)c12 was run?
Its T/C is 93 % of control.

Which T/C (dose: 50.0 mg/kg/injection, schedule: Q01DX001 (ip), vehicle: carboxymethylcellulose (CMC)) does the source give for CC(C)C1CCC2(CC1)CC(=O)N(CCC[N+](C)(C)C)C(=O)C2 here?
The T/C was 96 % of control.

How did the T/C [2] turn out when CC(=O)N1CCC(CC[P+](c2ccccc2)(c2ccccc2)c2ccccc2)CC1 was run?
The T/C was 101 % of control.

And the T/C [4]?
Its T/C is 96 % of control.

What about the T/C [6] of the same compound?
The T/C was 93 % of control.

How did the T/C (dose: 50.0 mg/kg/injection, schedule: Q01DX009 (ip), vehicle: Klucel (hydroxypropylcellulose) (HPC)) turn out when Cc1ccccc1N=Cc1ccc2c(c1)OCO2 was run?
Its T/C is 106 % of control.

And the T/C (dose: 100.0 mg/kg/injection, schedule: Q01DX009 (ip), vehicle: Klucel (hydroxypropylcellulose) (HPC))?
The T/C was 96 % of control.

What about the T/C (dose: 100.0 mg/kg/injection, schedule: Q04DX003 (ip), vehicle: Klucel (hydroxypropylcellulose) (HPC)) of the same compound?
The T/C was 98 % of control.

What about the T/C (dose: 200.0 mg/kg/injection, schedule: Q01DX009 (ip), vehicle: Klucel (hydroxypropylcellulose) (HPC)) of the same compound?
Its T/C is 106 % of control.

And the T/C (dose: 200.0 mg/kg/injection, schedule: Q04DX003 (ip), vehicle: Klucel (hydroxypropylcellulose) (HPC))?
The T/C was 89 % of control.

What about the T/C (dose: 400.0 mg/kg/injection, schedule: Q04DX003 (ip), vehicle: Klucel (hydroxypropylcellulose) (HPC)) of the same compound?
The T/C was 110 % of control.
